The values that follow come from patent US20060058376A1, “Composition having autonomic nerve modulating activity and method of use thereof” (SUNTORY LIMITED, priority 2003, published 2006).

Holding throughout (format): in vivo, human
One experiment relates to QT interval. Put plainly: QT interval (heart depolarization-repolarization time) after smoking. Particulars: FIG. 2; 3 x 10 mg sesamin capsules; placebo group significant prolongation (p<0.01). Here is the method: For nine male general university students, a test was carried out by a double blind, crossover study. Specifically, 3 soft capsules each containing 10 mg of sesamin and 3 placebo capsules were ingested, and the effect of the ingestion of the capsules on the activity of autonomic nerves was examined by a heart rate variability power spectrum method according to the method by Ue, H. et al. (Ue, H. et al., Ann. Noninvasive Electrocardiol., 5: 336-345 (2000)). After the ingestion of each sample, the students smoked one cigarette over a period of 4 min. Just before and after smoking, 10 min after smoking, and 30 min after smoking, electrocardiograms were taken, and sampling was carried out at 1024 Hz using 14-bit A/D conversion. Heart rate variability obtained from the electrocardiograms were processed by fast Fourier transform for frequency analysis to provide a heart rate variability power spectrum. In order to separate and quantify the heart rate variability spectrum, spectral integral values of two frequency bands (0.04 to 0.15 Hz and 0.15 to 0.4 Hz) are mainly determined. […] Further, the heart depolarization-repolarizaton time was measured by the QT interval.

Experiment [1] has as its system activity of autonomic nerves. As to the kind of experiment: Heart rate variability power spectrum after smoking, double blind crossover study. Particulars: for level of LF/HF change: 3 soft capsules each containing 10 mg of sesamin, nine male university students. The protocol:
For nine male general university students, a test was carried out by a double blind, crossover study. Specifically, 3 soft capsules each containing 10 mg of sesamin and 3 placebo capsules were ingested, and the effect of the ingestion of the capsules on the activity of autonomic nerves was examined by a heart rate variability power spectrum method according to the method by Ue, H. et al. (Ue, H. et al., Ann. Noninvasive Electrocardiol., 5: 336-345 (2000)). After the ingestion of each sample, the students smoked one cigarette over a period of 4 min. Just before and after smoking, 10 min after smoking, and 30 min after smoking, electrocardiograms were taken, and sampling was carried out at 1024 Hz using 14-bit A/D conversion. Heart rate variability obtained from the electrocardiograms were processed by fast Fourier transform for frequency analysis to provide a heart rate variability power spectrum. In order to separate and quantify the heart rate variability spectrum, spectral integral values of two frequency bands (0.04 to 0.15 Hz and 0.15 to 0.4 Hz) are mainly determined. The spectral integral value of the low frequency (0.04 to 0.15 Hz) band was used as a measure of the activity of the sympathetic nerves and the activity of the parasympathetic nerves, while the spectral integral value of the high frequency (0.15 to 0.4 Hz) band was used as a measure of the activity of the parasympathetic nerves. Further, the value obtained by dividing the spectral integral value of the low frequency band by the spectral integral value of the high frequency band, that is, LF/HF, was used as a measure of the balance between the activity of the sympathetic nerves and the activity of the parasympathetic nerves (Akselrod S et al., Science 213: 220-222 (1981) and Moritani T et al., J sportmed Sci. 7: 31-39 (1993)). Further, the heart depolarization-repolarizaton time was measured by the QT interval.

Experiment [2] has as its system activity of autonomic nerves. Put plainly: Heart rate variability power spectral analysis in women with symptoms of climacteric disorder, double-blind parallel comparison. The conditions noted are these: 4 weeks, 3 soft capsules each containing 10 mg of sesamin; supine position; FIG. 3. The protocol:
For 14 women who display symptoms of climacteric disorder, a test was carried out by double-blind parallel between-groups comparison. The subjects were randomly divided into two groups. Over a period of 4 weeks, 3 soft capsules each containing 10 mg of sesamin were ingested consecutively for one of the groups, and 3 placebo capsules were ingested consecutively for the other group. Before and after the ingestion of the sample, electrocardiograms were taken in a supine position, and the activity of the autonomic nerves was examined by heart rate variability power spectral analysis.

Consider `c1cc2c(cc1[C@H]1OC[C@H]3[C@@H]1CO[C@@H]3c1ccc3c(c1)OCO3)OCO2` [sesamin], for which, in the experiment on QT interval, the “prolongation of QT interval caused by smoking” value is given as “no significant prolongation”. Moreover, the “level of LF/HF change” value in experiment [1] (30 min after smoking) was −0.239. For the same compound, the “level of LF/HF change” value in experiment [1] (just after smoking) was “+2.87”. Besides, the “lowering in the activity of the parasympathetic nerves caused by smoking” value in experiment [1] (vs placebo, p<0.05, FIG. 1, 3 x 10 mg sesamin capsules) is “significantly inhibited”. For the same compound, in experiment [2], the “overall autonomic nerve activity” value is recorded as “increased”, the parasympathetic nerve activity result is listed as “significantly increased” and the sympathetic nerve activity result is “increased”.
